Values after ≈ are worked out from the molar mass of the structure shown. Where two headings read alike, the source gives them in different places.
Key:
Format in all cases: cell-based
MRSA EMRSA 16 18200/95 = assay: MIC agar dilution, MRSA strain 48; conditions: Staphylococcus aureus
Procedure: (§1) Molar equivalent concentrations were used to allow comparison between compounds of differing molecular mass. Due to weighing difficulties, any compound in solid form was melted in a water bath prior to dilution. To make ten-times strength concentrations, which takes into account agar dilution, 0.0352 mmol of each compound was weighed into plastic universal bottles and 4 mL of sterile distilled water (SDW) was added. To produce a homogenous emulsion the universals were vortexed; once achieved the emulsions were serial diluted by adding 2 mL to 2 mL of SDW.
(§2) For every 100 mL of Isosensitest agar (IST) (CM0471; Oxoid, Basingstoke, England), 3.1 g of the IST powder was added to 100 mL SDW (as per manufacturer's instructions) and sterilised for 15 minutes at 121° C. Once sterilised, the molten agar was cooled to 50° C. in a water-bath. Subsequently 4.8 g of CCEY powder (BC2160; Bioconnections, Wetherby, England), also known as Brazier's medium, was added to 100 mL SDW for every 100 mL of agar needed. This was then sterilised for 15 minutes at 121° C. Once sterilised the molten agar was cooled to 50° C. in a water-bath and 4 mL of egg-yolk emulsion (S2073; TCS Biosciences Ltd, Buckingham, United Kingdom) and 1 mL of lysed defibrinated horse blood (HB035; TCS Biosciences Ltd, Buckingham, United Kingdom) were also added for every 100 mL needed. Horse blood lysis is achieved by dilution to half concentration with SDW; when fully lysed the mixture will turn dark red in colour.
(§3) 18 mL agar was added to each universal and then poured into sterile Petri dishes. This step creates a 1/10 dilution resulting in agar plates of the required strength. Control plates for each set of strains were created by adding 18 mL of agar to 2 mL of SDW.
(§4) Suspensions of each bacterial species were prepared with a density equal to that of a 0.5 McFarland standard using a densitometer. All suspensions were made using sterile distilled water and fresh 18-20 hour cultures. As a 0.5 McFarland standard contains 1.5×10^8 CFU/mL and the multipoint inoculators applies 1 μL spots of liquid, each bacterial suspension was diluted 1/15 (20 μL suspension to 280 μL sterile distilled water).
(§5) Bacterial suspensions were prepared from fresh 18-24 hour cultures as previously described. 1 μL of each strain was inoculated onto all 100 agar plates containing a different chemical concentration and the 2 control plates. This was done using a multipoint inoculator which inoculates 20 strains per plate. All plates were incubated for 22 hours at 37° C. in aerobic conditions.
(§6) Each plate was examined for bacterial growth after 22 and 48 hours, with each being incubated in between examinations. A positive result was recorded as growth of ≧10 colonies. A negative result was recorded as growth of <10 colonies as this is equivalent to 99.9% inhibition. The lowest concentration of chemical that inhibited growth was recorded as the MIC. The results are recorded in Table IV below, where the numbers are quoted in mmol/L.
(§7) Given the positive performance of the ethoxylates of lauryl alcohol in reducing the MIC for a number of the micro-organisms tested, further MIC testing of Laureth-1 [C12E1] through to Laureth-8 [C12E8] was conducted on each of the following: • 10 strains of vancomycin-resistant enterococci (VRE)—listed in Table V below; and • 20 strains of methicillin-resistant Staphylococcus aureus (MRSA)—listed in Table VI.
(§8) The alkanol, alkanol derivatives, agar plates, and inocula were all prepared in the same way as described above.
(§9) The plates were examined in the same manner as described above and the results are recorded in Table VII below, where the numbers are quoted in mmol/L.

Escherichia coli = assay: MIC agar dilution, micro-organism 1 (10418); conditions: Escherichia coli 10418
Outline: (§10)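 Agar dilution in Isosensitest/CCEY agar with egg yolk and lysed horse blood; compounds as aqueous emulsions (myristyl and lauryl alcohol with 1-methyl-2-pyrrolidone and Tween 20). 1 µL spots of 1/15-diluted 0.5 McFarland suspensions, 37 °C aerobic, read at 22 and 48 h; MIC (mmol/L) is lowest concentration giving <10 colonies.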

Bacillus subtilis = assay: MIC agar dilution, micro-organism 18 (9372); conditions: Bacillus subtilis 9372
Outline: as §10

[1] = system: Enterococcus faecium (VRE) MB310; assay: MIC agar dilution, VRE strain 29
Procedure: as §1, §2, §3, §4, §5, §6, §7, §8, §9

MRSA EMRSA 15 1729/98 = assay: MIC agar dilution, MRSA strain 42; conditions: Staphylococcus aureus
Procedure: as §1, §2, §3, §4, §5, §6, §7, §8, §9

[2] = system: Staphylococcus epidermidis; assay: MIC agar dilution, micro-organism 14 (11047); conditions: Staphylococcus epidermidis 11047
Outline: as §10

[3] = system: Gram negative bacteria, Gram positive bacteria and pathogenic yeasts; assay: MIC agar dilution, summary statements over the micro-organisms tested (Tables I, IX)
Description: For a better understanding, the present invention will now be more particularly described, by way of non-limiting example only, as follows. The micro-organisms shown in Table I overleaf were acquired from the National Collection of Type Cultures (NCTC), Colindale, United Kingdom; the American Type Culture Collection (ATCC), Manassas, United States and the National Collection of Pathogenic Fungi (NCPF), Colindale, United Kingdom. They include Gram negative bacteria, Gram positive bacteria and pathogenic yeasts.
Throughout the period of testing the microbial strains were subcultured and incubated for 18-20 hours at 37° C. on a weekly basis. Horse blood agar plates were used to sustain the micro-organisms both prior to and throughout testing. The alkoxylated alkanols listed in Table II below were obtained (these are obtainable from Sigma-Aldrich Company Ltd, Dorset, England), each having a GC purity of at least 97%.
as §1
Myristyl alcohol and lauryl alcohol were re-weighed and dissolved in 25 μL of the polar solvent 1-methyl-2-pyrrolidone (M6762; Sigma-Aldrich) in sterile glass universals due to an inability to achieve an even suspension. To maintain an even emulsion in the presence of SDW 37.5 μL of the non-ionic detergent Tween 20 (P1379, Sigma-Aldrich) was also added. 3.9375 mL of SDW was added to these, to create a 4 mL volume; they were vortexed and diluted as before.
as §2, §3, §4
Bacterial suspensions were prepared from fresh 18-24 hour cultures as previously described. 1 μL of each strain was inoculated onto all 100 agar plates containing a different chemical concentration and the 2 control plates. This was done using a multipoint inoculator which inoculates 20 strains per plate. All plates were incubated for 22 hours at 37° C. in aerobic conditions. […]

MRSA EMRSA 15 21268/98 = assay: MIC agar dilution, MRSA strain 40; conditions: Staphylococcus aureus
Procedure: as §1, §2, §3, §4, §5, §6, §7, §8, §9

MRSA BEL 97598 = assay: MIC agar dilution, MRSA strain 34; conditions: Staphylococcus aureus
Procedure: as §1, §2, §3, §4, §5, §6, §7, §8, §9

[4] = system: Enterococcus faecium (VRE) 255693 N. Tyneside; assay: MIC agar dilution, VRE strain 22
Procedure: as §1, §2, §3, §4, §5, §6, §7, §8, §9

SMILES | MIC (MRSA EMRSA 16 18200/95; 22 hrs) [µM] | MIC (MRSA EMRSA 16 18200/95; 48 hrs) [µM] | MIC (Escherichia coli; 22 hrs, read-out: MIC) [µM] | MIC (Escherichia coli; 48 hrs, read-out: MIC) [µM] | MIC (Bacillus subtilis; 22 hrs, read-out: MIC) [µM] | MIC (Bacillus subtilis; 48 hrs, read-out: MIC) [µM] | MIC ([1]; 22 hrs) [µM] | MIC ([1]; 48 hrs) [µM] | MIC (MRSA EMRSA 15 1729/98; 22 hrs) [µM] | MIC (MRSA EMRSA 15 1729/98; 48 hrs) [µM] | MIC ([2]; 22 hrs, read-out: MIC) [µM] | MIC ([2]; 48 hrs, read-out: MIC) [µM] | MIC (MRSA EMRSA 15 21268/98; 22 hrs) [µM] | MIC (MRSA EMRSA 15 21268/98; 48 hrs) [µM] | MIC (MRSA BEL 97598; 22 hrs) [µM] | MIC (MRSA BEL 97598; 48 hrs) [µM] | MIC ([4]; 22 hrs) [µM] | MIC ([4]; 48 hrs) [µM] | also measured
CCCCCCCCCCCCOCCOCCOCCOCCOCCO [L5, Pentaethylene Glycol Monododecyl Ether] | 110 (≈ 44.7 µg/mL) | 110 (≈ 44.7 µg/mL) | > 880 | > 880 | 110 (≈ 44.7 µg/mL) | 110 (≈ 44.7 µg/mL) | 110 (≈ 44.7 µg/mL) | 110 (≈ 44.7 µg/mL) | 110 (≈ 44.7 µg/mL) | 110 (≈ 44.7 µg/mL) | 110 (≈ 44.7 µg/mL) | 110 (≈ 44.7 µg/mL) | 110 (≈ 44.7 µg/mL) | 110 (≈ 44.7 µg/mL) | 110 (≈ 44.7 µg/mL) | 110 (≈ 44.7 µg/mL) | 220 (≈ 89.5 µg/mL) | 220 (≈ 89.5 µg/mL) | MIC ([3]; read-out: MIC): ~110 µM (≈ 44.7 µg/mL)
CCCCCCCCCCCCCOCCOCCOCCOCCOCCOCCO [C13E6, polyoxyethylene (6) tridecyl alcohol] | – | – | – | – | – | – | – | – | – | – | – | – | – | – | – | – | – | – | MIC (Escherichia coli; 22 hrs): >880 µM; MIC (Escherichia coli; 48 hrs): >880 µM; MIC (Bacillus subtilis; 22 hrs): 110 µM (≈ 51.1 µg/mL); MIC (Bacillus subtilis; 48 hrs): 110 µM (≈ 51.1 µg/mL); MIC ([2]; 22 hrs): 110 µM (≈ 51.1 µg/mL); MIC ([2]; 48 hrs): 110 µM (≈ 51.1 µg/mL); MIC ([3]; over the micro-organisms tested or some of them): less than 0.88 mmol/L
CCCCCCCCCCCCOCCOCCOCCOCCOCCOCCOCCOCCO [L8, Octaethylene Glycol Monododecyl Ether] | > 440 | > 440 | > 880 | > 880 | 110 (≈ 59.3 µg/mL) | 110 (≈ 59.3 µg/mL) | > 880 | > 880 | > 440 | > 440 | 110 (≈ 59.3 µg/mL) | 110 (≈ 59.3 µg/mL) | > 440 | > 440 | > 440 | > 440 | > 880 | > 880 | –
CCCCCCCCCCCCCCCCO [C0, 1-Hexadecanol, reference compound] | – | – | > 880 | > 880 | > 880 | > 880 | – | – | – | – | > 880 | > 880 | – | – | – | – | – | – | –
CCCCCCCCCCCCOCCO [L1, Ethylene Glycol Monododecyl Ether] | 220 (≈ 50.7 µg/mL) | 220 (≈ 50.7 µg/mL) | 220 (≈ 50.7 µg/mL) | 220 (≈ 50.7 µg/mL) | 440 (≈ 101 µg/mL) | 440 (≈ 101 µg/mL) | 440 (≈ 101 µg/mL) | 440 (≈ 101 µg/mL) | 220 (≈ 50.7 µg/mL) | 220 (≈ 50.7 µg/mL) | 220 (≈ 50.7 µg/mL) | 220 (≈ 50.7 µg/mL) | 220 (≈ 50.7 µg/mL) | 220 (≈ 50.7 µg/mL) | 220 (≈ 50.7 µg/mL) | 220 (≈ 50.7 µg/mL) | 440 (≈ 101 µg/mL) | 440 (≈ 101 µg/mL) | MIC ([3]; read-out: MIC): ≤ 440 µM
CCCCCCCCCCCCOCCOCCOCCOCCOCCOCCOCCO [L7, Heptaethylene Glycol Monododecyl Ether] | 220 (≈ 109 µg/mL) | > 440 | > 880 | > 880 | 110 (≈ 54.4 µg/mL) | 110 (≈ 54.4 µg/mL) | 110 (≈ 54.4 µg/mL) | 110 (≈ 54.4 µg/mL) | 440 (≈ 218 µg/mL) | 440 (≈ 218 µg/mL) | 110 (≈ 54.4 µg/mL) | 110 (≈ 54.4 µg/mL) | > 440 | > 440 | > 440 | > 440 | > 880 | > 880 | –
CCCCCCCCCCCCOCCOCCO [L2, Diethylene Glycol Monododecyl Ether] | 110 (≈ 30.2 µg/mL) | 110 (≈ 30.2 µg/mL) | > 880 | > 880 | 110 (≈ 30.2 µg/mL) | 220 (≈ 60.4 µg/mL) | 880 (≈ 242 µg/mL) | 880 (≈ 242 µg/mL) | 110 (≈ 30.2 µg/mL) | 110 (≈ 30.2 µg/mL) | 110 (≈ 30.2 µg/mL) | 110 (≈ 30.2 µg/mL) | 110 (≈ 30.2 µg/mL) | 110 (≈ 30.2 µg/mL) | 110 (≈ 30.2 µg/mL) | 220 (≈ 60.4 µg/mL) | 440 (≈ 121 µg/mL) | 440 (≈ 121 µg/mL) | –
